Experimental findings from ChEMBL document CHEMBL6177941, “Recent advances from computer-aided drug design to artificial intelligence drug design” (RSC Med Chem, 2024) are described below.

Assay [1] relates to Acinetobacter baumannii. Put plainly: microbe, parasite or virus in culture. Conditions: ATCC 17978.
Description: Antibacterial activity against Acinetobacter baumannii ATCC 17978
Assay [2] in a line: Inhibition of Poly-L-Histidine tagged full length recombinant Trypanosoma cruzi Sir2p extracted from Escherichia coli BL21 (DE) using Abz-Gly-Pro-AcetylLys-Ser-Gln-EDDnp peptide as substrate incubated for 30 mins by fluorescence based analysis.
The target in assay [3] is Epithelial discoidin domain-containing receptor 1 (Homo sapiens, UniProt Q08345).
Chain of Epithelial discoidin domain-containing receptor 1 (Q08345 whole entry, the tested form may be a part): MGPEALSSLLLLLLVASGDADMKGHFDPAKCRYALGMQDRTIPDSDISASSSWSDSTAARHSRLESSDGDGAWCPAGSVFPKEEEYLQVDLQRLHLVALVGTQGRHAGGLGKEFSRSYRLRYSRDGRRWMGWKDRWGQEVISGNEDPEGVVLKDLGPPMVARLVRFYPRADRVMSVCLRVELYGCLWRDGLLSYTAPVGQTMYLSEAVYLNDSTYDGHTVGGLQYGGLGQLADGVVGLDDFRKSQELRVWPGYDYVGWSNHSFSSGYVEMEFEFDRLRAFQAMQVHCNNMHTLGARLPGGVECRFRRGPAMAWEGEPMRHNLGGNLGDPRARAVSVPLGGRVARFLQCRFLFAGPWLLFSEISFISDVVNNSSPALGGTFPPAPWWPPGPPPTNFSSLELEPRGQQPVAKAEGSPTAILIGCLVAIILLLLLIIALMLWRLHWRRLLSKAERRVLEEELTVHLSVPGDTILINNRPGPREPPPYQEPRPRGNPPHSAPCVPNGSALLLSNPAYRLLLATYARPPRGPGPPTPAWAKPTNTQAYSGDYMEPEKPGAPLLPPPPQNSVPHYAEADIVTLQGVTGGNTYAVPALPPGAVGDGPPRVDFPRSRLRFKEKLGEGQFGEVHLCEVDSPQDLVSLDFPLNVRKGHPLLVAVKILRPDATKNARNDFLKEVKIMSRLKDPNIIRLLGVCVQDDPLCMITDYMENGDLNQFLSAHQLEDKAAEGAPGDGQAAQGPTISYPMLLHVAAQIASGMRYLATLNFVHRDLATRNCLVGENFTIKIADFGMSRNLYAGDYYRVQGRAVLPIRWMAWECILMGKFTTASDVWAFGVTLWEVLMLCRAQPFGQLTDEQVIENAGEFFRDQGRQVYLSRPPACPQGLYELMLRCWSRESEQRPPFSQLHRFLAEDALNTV
Assay [4] concerns the target Tyrosine-protein kinase JAK2 (Homo sapiens, UniProt O60674). As to the kind of experiment: Inhibition of JAK2 (unknown origin) by Z'-LYTE kinase assay.
Assay [5] has as its target Rho-associated protein kinase 1 (Homo sapiens, UniProt Q13464).
Description: Binding affinity to N-terminal GST-tagged human ROCK1 catalytic domain (1 to 477 residues) expressed in Sf21 insect cells assessed as inhibition constant by NanoBRET intracellular kinase assay
For assay [6], the system named is MOLT-4. As to the kind of experiment: Antiproliferative activity against human MOLT-4 cells assessed as reduction in cell growth incubated for 72 hrs by Cell-titer glo luminescent cell viability assay. Particulars: MOLT-4, 72 h.
In assay [7] the target is 5-hydroxytryptamine receptor 2A (Homo sapiens, UniProt P28223). Put plainly: Agonist activity at human 5-HT2A receptor expressed in HEK293 cells incubated for 60 mins by BRET assay.
Chain of 5-hydroxytryptamine receptor 2A (P28223 whole entry): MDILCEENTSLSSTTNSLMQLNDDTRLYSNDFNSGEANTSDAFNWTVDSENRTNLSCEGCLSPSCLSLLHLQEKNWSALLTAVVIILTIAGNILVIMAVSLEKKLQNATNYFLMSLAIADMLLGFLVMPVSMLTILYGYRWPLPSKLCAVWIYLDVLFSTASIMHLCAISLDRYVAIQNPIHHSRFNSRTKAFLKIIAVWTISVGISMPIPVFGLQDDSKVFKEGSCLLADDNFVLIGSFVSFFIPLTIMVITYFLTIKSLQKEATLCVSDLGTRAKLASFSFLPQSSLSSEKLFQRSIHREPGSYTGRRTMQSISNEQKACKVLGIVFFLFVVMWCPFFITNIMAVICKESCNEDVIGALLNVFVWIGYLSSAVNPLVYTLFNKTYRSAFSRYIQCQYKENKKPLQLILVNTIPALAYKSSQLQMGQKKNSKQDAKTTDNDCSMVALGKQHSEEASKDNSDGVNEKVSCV
Assay [8] deals with T1, Androgen receptor (Homo sapiens, UniProt P10275).
T1 sequence (P10275 whole entry): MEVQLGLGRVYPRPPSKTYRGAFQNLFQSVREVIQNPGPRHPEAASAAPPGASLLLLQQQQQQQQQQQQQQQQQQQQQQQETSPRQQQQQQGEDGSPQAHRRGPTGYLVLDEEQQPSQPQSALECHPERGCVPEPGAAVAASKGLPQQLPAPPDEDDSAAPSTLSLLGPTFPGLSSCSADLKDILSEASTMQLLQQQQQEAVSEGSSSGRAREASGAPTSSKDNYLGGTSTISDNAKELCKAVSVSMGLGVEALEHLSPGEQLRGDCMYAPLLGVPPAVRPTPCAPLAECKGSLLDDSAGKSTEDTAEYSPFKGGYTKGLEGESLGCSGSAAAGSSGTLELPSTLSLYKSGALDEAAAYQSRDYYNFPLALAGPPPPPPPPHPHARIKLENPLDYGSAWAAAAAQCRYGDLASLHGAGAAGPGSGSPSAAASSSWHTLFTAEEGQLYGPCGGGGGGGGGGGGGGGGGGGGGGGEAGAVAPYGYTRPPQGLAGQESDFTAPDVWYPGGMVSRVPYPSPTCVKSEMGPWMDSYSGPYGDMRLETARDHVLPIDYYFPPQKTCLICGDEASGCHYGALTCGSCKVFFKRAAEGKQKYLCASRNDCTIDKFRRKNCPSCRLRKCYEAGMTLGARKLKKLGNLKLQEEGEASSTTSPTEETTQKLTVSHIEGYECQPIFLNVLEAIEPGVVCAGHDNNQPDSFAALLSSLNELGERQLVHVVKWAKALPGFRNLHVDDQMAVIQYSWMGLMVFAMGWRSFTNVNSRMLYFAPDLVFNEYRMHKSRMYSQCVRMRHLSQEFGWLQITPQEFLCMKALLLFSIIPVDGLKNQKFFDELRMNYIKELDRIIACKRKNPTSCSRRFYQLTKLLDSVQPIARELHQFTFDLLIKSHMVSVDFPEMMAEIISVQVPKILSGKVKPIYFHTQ
Put plainly: Inhibition of full length human Androgen receptor DNA binding domain dimerization.

Assay [9] has as its target Cannabinoid receptor 2 (Homo sapiens, UniProt P34972). As to the kind of experiment: Binding affinity to human CB2 receptor assessed as inhibition constant.
For assay [10], the system named is Escherichia coli. Put plainly: Antibacterial activity against Escherichia coli.
Assay [11] deals with Speckle-type POZ protein (Homo sapiens, UniProt O43791).
Chain of Speckle-type POZ protein (O43791 whole entry): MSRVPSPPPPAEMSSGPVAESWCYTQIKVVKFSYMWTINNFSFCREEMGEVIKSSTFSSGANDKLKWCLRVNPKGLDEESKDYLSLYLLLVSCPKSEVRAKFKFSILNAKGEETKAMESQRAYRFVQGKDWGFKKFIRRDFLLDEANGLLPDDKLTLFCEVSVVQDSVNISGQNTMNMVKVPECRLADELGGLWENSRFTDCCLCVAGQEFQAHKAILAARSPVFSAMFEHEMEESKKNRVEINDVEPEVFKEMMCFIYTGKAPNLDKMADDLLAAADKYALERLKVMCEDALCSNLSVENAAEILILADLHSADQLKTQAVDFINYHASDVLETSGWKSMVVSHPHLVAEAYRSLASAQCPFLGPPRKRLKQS
Assay [12] deals with T2, Serine/threonine-protein kinase Sgk3 (Homo sapiens, UniProt Q96BR1).
T2 sequence (Q96BR1 whole entry): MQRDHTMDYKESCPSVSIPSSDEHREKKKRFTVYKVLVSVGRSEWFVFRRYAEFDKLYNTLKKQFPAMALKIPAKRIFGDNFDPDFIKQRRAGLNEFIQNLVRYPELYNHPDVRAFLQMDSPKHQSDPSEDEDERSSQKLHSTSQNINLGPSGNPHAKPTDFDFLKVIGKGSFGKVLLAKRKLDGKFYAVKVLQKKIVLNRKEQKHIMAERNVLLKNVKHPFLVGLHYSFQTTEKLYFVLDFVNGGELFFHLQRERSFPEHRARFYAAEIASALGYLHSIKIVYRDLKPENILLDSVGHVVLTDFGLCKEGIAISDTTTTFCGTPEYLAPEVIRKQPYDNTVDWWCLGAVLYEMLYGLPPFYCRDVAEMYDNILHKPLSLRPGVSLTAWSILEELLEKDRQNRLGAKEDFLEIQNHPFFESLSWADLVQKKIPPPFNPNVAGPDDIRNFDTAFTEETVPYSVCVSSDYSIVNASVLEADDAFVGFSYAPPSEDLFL
As to the kind of experiment: Inhibition of SGK3 (unknown origin).

Assay [13] deals with VCaP. As to the kind of experiment: Antiproliferative activity against human VCaP cells expressing ERG level assessed as reduction in cell viability incubated for 72 hrs by CCK8 assay.
In assay [14] the test system is Staphylococcus aureus. Put plainly: microbe, parasite or virus in culture. Particulars: ATCC 35556, 24 h.
Description: Antibacterial activity against wild type Staphylococcus aureus ATCC 35556 assessed as reduction in bacterial growth incubated for 24 hrs by CLSI protocol based broth micro-dilution method
In assay [15] the test system is Staphylococcus aureus. Put plainly: microbe, parasite or virus in culture. Conditions: ATCC 43300, 24 h.
Description: Antibacterial activity against methicillin-resistant Staphylococcus aureus ATCC 43300 assessed as reduction in bacterial growth incubated for 24 hrs by CLSI protocol based broth micro-dilution method
Assay [16] addresses Myeloid differentiation primary response protein MyD88 (Homo sapiens, UniProt Q99836). Put plainly: Binding affinity to MYD88 Toll/interleukin-1 receptor domain (unknown origin) assessed as dissociation constant by SPR assay.

Structures are written as SMILES. Values after ≈ are worked out from the molar mass of the structure shown.

Chain of Myeloid differentiation primary response protein MyD88 (Q99836 whole entry, the tested form may be a part): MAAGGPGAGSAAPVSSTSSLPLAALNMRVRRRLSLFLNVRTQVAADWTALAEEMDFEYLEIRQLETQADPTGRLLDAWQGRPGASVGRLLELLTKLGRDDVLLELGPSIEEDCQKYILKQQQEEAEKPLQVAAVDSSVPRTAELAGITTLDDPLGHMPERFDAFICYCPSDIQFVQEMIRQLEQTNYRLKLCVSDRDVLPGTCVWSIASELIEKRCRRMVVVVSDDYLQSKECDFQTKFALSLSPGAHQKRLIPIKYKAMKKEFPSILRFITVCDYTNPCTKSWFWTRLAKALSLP
Chain of Tyrosine-protein kinase JAK2 (O60674 whole entry): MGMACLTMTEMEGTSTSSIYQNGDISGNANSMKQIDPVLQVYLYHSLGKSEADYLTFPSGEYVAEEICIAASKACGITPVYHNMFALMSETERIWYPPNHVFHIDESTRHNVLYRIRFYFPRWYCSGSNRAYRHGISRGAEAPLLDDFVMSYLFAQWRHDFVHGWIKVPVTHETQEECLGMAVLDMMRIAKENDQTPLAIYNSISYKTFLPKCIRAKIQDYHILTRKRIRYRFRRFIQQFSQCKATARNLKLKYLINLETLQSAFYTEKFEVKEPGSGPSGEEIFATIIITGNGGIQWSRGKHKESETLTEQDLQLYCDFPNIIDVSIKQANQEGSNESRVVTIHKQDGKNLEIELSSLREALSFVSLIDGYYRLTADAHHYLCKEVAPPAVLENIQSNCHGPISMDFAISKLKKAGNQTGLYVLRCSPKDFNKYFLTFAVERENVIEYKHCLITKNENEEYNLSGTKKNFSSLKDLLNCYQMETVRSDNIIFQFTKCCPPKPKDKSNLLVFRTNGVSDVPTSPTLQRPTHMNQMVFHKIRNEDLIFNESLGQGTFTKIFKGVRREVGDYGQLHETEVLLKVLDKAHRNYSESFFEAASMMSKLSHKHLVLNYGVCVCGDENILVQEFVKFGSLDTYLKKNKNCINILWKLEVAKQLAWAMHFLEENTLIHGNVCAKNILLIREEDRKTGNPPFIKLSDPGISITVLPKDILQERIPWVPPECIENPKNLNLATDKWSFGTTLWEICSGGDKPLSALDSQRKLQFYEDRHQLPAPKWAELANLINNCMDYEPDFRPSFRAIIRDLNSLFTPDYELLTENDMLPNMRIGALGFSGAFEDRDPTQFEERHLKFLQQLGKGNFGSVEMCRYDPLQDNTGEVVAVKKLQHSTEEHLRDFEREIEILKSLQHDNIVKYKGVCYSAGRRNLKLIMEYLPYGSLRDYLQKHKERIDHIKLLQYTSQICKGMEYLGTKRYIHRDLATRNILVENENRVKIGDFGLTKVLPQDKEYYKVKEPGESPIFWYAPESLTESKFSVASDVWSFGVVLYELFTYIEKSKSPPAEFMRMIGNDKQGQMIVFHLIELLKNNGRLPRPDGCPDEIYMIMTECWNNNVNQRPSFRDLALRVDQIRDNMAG
Chain of Rho-associated protein kinase 1 (Q13464 whole entry): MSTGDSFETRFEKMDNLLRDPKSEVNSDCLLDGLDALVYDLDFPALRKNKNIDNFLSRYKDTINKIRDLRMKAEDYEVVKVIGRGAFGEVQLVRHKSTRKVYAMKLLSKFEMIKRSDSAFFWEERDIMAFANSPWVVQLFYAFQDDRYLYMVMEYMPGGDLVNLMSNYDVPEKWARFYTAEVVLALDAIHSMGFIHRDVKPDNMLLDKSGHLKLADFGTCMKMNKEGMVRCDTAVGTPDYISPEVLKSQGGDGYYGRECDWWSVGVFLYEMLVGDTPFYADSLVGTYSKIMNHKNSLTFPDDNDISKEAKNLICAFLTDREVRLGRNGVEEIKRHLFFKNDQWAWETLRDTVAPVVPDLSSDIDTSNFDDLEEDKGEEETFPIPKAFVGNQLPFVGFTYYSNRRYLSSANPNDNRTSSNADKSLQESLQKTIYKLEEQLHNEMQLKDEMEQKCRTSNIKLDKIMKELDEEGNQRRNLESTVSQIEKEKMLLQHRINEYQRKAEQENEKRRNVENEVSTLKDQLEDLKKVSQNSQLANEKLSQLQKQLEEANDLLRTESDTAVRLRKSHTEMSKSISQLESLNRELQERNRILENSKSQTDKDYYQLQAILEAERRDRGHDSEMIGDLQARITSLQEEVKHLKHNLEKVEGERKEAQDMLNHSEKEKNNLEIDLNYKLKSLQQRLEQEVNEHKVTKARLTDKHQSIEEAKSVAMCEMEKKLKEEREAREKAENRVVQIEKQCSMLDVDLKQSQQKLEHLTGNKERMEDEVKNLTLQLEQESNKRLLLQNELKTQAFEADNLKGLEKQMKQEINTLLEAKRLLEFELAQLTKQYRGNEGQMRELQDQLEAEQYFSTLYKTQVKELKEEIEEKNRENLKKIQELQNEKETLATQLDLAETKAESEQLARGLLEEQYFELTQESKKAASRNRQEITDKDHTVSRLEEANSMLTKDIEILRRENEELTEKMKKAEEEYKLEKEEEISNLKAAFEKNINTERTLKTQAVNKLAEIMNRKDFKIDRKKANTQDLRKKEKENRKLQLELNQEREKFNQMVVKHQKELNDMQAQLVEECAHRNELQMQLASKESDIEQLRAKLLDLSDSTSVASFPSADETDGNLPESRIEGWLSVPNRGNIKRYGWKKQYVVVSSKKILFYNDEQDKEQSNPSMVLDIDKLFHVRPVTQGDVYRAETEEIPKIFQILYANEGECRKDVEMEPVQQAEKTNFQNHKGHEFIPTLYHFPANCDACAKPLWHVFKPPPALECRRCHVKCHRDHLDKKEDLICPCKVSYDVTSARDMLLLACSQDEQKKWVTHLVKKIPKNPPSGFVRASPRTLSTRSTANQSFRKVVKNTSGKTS
Chain of Cannabinoid receptor 2 (P34972 whole entry): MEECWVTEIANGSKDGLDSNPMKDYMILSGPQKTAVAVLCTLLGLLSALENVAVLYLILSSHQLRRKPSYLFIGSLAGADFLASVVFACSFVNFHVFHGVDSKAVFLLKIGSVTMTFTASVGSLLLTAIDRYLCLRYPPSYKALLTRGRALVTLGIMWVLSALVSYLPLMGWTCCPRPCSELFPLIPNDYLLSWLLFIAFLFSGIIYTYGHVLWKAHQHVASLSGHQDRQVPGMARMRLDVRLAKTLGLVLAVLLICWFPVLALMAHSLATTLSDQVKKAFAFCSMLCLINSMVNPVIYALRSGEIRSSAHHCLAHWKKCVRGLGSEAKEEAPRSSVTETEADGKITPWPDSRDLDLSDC

Molecule `O=C1Nc2ccccc2C2(CCN(CCc3ccc(C(F)(F)F)cc3)CC2)O1` returned an MIC in assay [1] of 2 mg/L (≈ 5.12 µM).
For `O=C(NCc1coc(-c2ccccc2)n1)Nc1ccc(-c2noc(C(F)(F)F)n2)cc1`, the IC50 in assay [2] turned out to be 40 µM.
As to `COCc1cccc(CC(=O)Nc2ccc(-c3cn[nH]c3)cc2)c1`, the IC50 in assay [3] came out at 0.01 µM; in [4] it was 0.07 µM; in assay [6], 0.116 µM. The molecule also had an inhibitory constant (Ki) in assay [5] of 0.038 µM.
With `C[C@@H]1C=C(c2c[nH]c3ncccc23)CN(C)C1`, in assay [7], the EC50 came to 0.11 µM.
Consider `O=C(NCc1cccc2ccccc12)NCC(O)(c1cccs1)c1cccs1`, for which the IC50 in assay [8] turned out to be 2 µM.
For `COCC(C)(NC(=O)c1ccc(N2CCCCC2)c(S(=O)(=O)N2CCCCC2)c1)C1CC1` (configuration not stated), the Ki in assay [9] came to 0.0009 µM.
Take `CC(O)(CNC(=O)/C=C/c1ccnc2ccccc12)c1ccsc1` (configuration not stated): the concentration for half-maximal inhibition (IC50) in [8] was determined as 5 µM.
Turning to `Nc1nnc(Sc2ncc([N+](=O)[O-])s2)s1`, the MIC in assay [10] was found to be 2 mg/L (≈ 7.65 µM).
As for `Cc1nnc(SCC2=C(C(=O)O)N3C(=O)[C@@H](NC(=O)c4ccc(COc5ccccc5Cl)o4)[C@H]3SC2)s1`, the half-maximal inhibitory concentration (IC50) in [11] was 4.51 µM.
Take `COc1ccc(/C=C/c2[nH]c(=O)[nH]c(=O)c2[N+](=O)[O-])cc1OC`: the midpoint of inhibition in assay [12], the IC50, lay at 179 µM.
As to `O=C(N/N=C/c1ccc([N+](=O)[O-])o1)c1ccc(O)cc1` [NIFUROXAZIDE], the IC50 in assay [13] amounted to 2.56 µM.
`CC1(C)[C@H]2Cc3cc(-c4cc5c(cn4)[C@@H]4C[C@H](C5)C4(C)C)ncc3[C@@H]1C2`: the MIC in [14] and in assay [15] was 8 mg/L (≈ 23.2 µM) each time.
As to `O=C(CN1CCC(CCc2ccccc2)CC1)Nc1n[nH]c2ncccc12`, in [16], the dissociation constant Kd was determined as 165 µM.
